Laboratory results: US6962976B2, “Human TREK2, a stretch- and arachidonic acid-sensitive K+ channel activated by inhalational anesthetics and niluzole” (Centre National de la Recherche Scientifique-CNRS, priority 2000, dated 2005)

Key:
TREK2 = molecular target: T1, TREK2 (Homo sapiens, UniProt P57789); assay: Whole-cell patch-clamp of TREK2 currents in transfected COS cells; assay type: cell-based; conditions: for effect on TREK2 current in COS cells transfected with only TREK2: no receptor co-expressed; for activation of TREK2 by fatty acids and lysophospholipids (in words): whole-cell current
T1 construct: expressed in transfected cells; host or cells: COS cells
T1 sequence (P57789 1-538): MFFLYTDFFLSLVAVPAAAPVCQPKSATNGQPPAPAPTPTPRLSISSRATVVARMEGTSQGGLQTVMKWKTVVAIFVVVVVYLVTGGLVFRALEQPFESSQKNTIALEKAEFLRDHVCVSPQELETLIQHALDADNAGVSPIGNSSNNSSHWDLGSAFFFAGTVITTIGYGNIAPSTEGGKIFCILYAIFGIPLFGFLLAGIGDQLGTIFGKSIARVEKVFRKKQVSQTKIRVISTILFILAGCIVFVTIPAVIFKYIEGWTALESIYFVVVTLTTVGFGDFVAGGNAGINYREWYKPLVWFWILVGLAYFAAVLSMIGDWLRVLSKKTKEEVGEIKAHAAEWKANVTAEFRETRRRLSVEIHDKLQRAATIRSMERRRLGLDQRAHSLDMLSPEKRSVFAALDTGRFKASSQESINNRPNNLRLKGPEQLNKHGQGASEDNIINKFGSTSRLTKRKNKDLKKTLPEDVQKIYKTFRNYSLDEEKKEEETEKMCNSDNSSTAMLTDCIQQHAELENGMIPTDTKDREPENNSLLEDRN
Experimental: For inside-out patch recordings, pipettes were filled with the EXT solution and the bathing solution was the INT solution buffered either at pH 7.3 or at pH 5.6 in the internal acidosis experiments. Cells were continuously superfused with a microperfusion system during the experiment (0.2 ml per min) done at room temperature. A RK400 patch-clamp amplifier was used for whole-cell and single-channel recordings (Bio-Logic, Claix, France). Single-channel data were low-pass filtered at 5 KHz and digitized at 50 KHz using a DAT recorder (Bio-Logic, Claix, France). pClamp software was used to analyze whole-cell data and Biopatch software (Bio-Logic) to analyze single-channel data.
Concentrations of volatile anesthetics were adjusted from saturated solutions (isoflurane, 15.3 mM; halothane, 17.5 mM and chloroform, 66.6 mM) in saline at room temperature (16). Mechanical stimulation was applied through an open loop pressure generating system and monitored at the level of the patch pipette by a calibrated pressure sensor (17).

[1] = system: TREK2 co-expressed with 5HT4sR
Experimental: (§1) The voltage-clamp protocol consists of a voltage-ramp of 800 ms duration starting from a holding potential of −80 mV applied every 10 s. The current was monitored at +100 mV.
(§2) COS cells were seeded at a density of 20,000 cells per 35 mm dish, 24 h prior transfection. Cells were transiently transfected by the classical DEAE-dextran method with 0.2 μg of pIRES-CD8. TREK2 with or without mGluR1, mGluR2 or 5HT4sR expression vectors (a generous gift of Drs J P Pin and A Dumuis, Montpellier, France).
(§3) Transfected cells were visualized 48 h after transfection using the anti-CD8 antibody-coated beads method.
(§4) TREK2 was co-expressed with 5HT4sR, a Gs-coupled receptor. […] A third type of G-protein coupled receptor was co-expressed with TREK2. This receptor is the Gq-coupled mGluR1 receptor. […] The Gq-protein is commonly associated with activation of phospholipase C and the consequent production of diacylglycerol (DAG) and inositol 1,4,5-triphosphate (IP 3). Ultimately, DAG leads to activation of PKC and IP 3 to an increase of intracellular Ca^2+.

TREK1 = molecular target: T2, TREK1 (Homo sapiens, UniProt O95069); conditions: cited from earlier work
T2 sequence (O95069 1-426): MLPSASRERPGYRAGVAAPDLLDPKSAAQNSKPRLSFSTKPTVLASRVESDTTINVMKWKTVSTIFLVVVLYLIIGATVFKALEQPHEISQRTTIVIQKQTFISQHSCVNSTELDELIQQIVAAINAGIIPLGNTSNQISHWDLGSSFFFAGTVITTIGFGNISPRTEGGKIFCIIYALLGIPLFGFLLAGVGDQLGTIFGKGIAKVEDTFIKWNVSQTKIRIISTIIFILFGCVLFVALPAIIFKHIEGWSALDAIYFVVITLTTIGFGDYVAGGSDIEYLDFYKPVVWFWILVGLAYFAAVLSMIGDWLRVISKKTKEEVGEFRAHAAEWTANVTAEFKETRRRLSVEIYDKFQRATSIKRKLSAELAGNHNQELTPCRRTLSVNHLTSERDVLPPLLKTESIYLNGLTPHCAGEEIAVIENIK

[2] = system: TREK2 co-expressed with mGluR2; assay: Whole-cell TREK2 current, TREK2 co-expressed with Gi-coupled mGluR2 in COS cells; assay type: cell-based, human
Experimental: as §1, §2, §3, §4

TRAAK = molecular target: T3, TRAAK (Homo sapiens, UniProt Q9NYG8); conditions: cited from earlier work
T3 sequence (Q9NYG8 1-393): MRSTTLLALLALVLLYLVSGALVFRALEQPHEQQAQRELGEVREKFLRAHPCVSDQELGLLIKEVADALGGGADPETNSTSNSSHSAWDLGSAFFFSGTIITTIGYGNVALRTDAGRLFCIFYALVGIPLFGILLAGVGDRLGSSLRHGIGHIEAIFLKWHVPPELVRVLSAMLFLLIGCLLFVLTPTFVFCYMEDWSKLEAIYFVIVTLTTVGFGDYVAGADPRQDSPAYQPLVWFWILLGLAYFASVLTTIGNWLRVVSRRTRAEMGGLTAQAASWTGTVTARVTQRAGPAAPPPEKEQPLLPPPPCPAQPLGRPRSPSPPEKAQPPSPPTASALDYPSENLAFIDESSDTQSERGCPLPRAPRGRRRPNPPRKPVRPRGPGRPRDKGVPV

[3] = 1 mM, 0 mV (voltage given for halothane only)

NCCc1c[nH]c2ccc(O)cc12 [5-HT, 5-hydroxytryptamine]
effect on TREK2 current in COS cells transfected with only TREK2 (TREK2): No effect
effect on TREK2 activity after receptor activation [1]: decrease of TREK2 activity

[Ba+2] [Ba^2+]
sensitivity of TREK2 currents (TREK2; 1 mM): insensitive

Nc1ncnc2c1nc(Sc1ccc(Cl)cc1)n2[C@@H]1O[C@@H]2COP(=O)(O)O[C@H]2[C@H]1O [CPT-cAMP]
inhibition of TREK2 activity (TREK2; 500 μM, at 0 mV, n=8): 50±5%

[Ca+2] [Ca^2+]
inhibition of TREK2 (in words) (TREK2; 1 μM in the recording pipette): nor the addition of Ca^2+ in the recording pipette (1 μM) were able to induce an inhibition

CCCCCCCCCCCCCC(=O)O[C@@H]1[C@@H](C)[C@@]2(O)[C@@H](C=C(CO)C[C@]3(O)C(=O)C(C)=C[C@@H]23)[C@@H]2C(C)(C)[C@]12OC(C)=O [PMA]
inhibition of TREK2 (in words) (TREK2; 100 nM): neither the application of the PKC-activator PMA (100 nM) nor the addition of Ca^2+ in the recording pipette (1 μM) were able to induce an inhibition

C=C[C@H]1C[N@@]2CC[C@H]1C[C@@H]2[C@@H](O)c1ccnc2ccc(OC)cc12 [Quinidine]
inhibition at 100 µM (TREK2; COS, 100 μM): 50%

CCCCC/C=C\C/C=C\C/C=C\C/C=C\CCCC(=O)O [arachidonic acid]
fold increase of TREK2 current (TREK2; 10 μM, at 0 mV): 8.4±1.9 fold increase

ClC(Cl)Cl [chloroform]
fold increase of TREK2 current (TREK2; [3]): 1.8±0.1 fold increase
relative efficiency of anesthetics on TREK1 (TREK1; 1 mM): more effective than halothane and isoflurane

N[C@@H](CCC(=O)O)C(=O)O [glutamate]
effect on TREK2 current in COS cells transfected with only TREK2 (TREK2): No effect
effect on TREK2 activity after receptor activation [2]: stimulation of TREK2 activity
time to reverse the TREK2 increase after washing [2]: more than 10 minutes

FC(F)(F)C(Cl)Br (centres unmarked) [halothane]
fold increase of TREK2 current (TREK2; 0.25 mM, at +100 mV, n=10): 1.4±0.1 fold increase
fold increase of TREK2 current (TREK2; 0.5 mM, at +100 mV, n=10): 2.6±0.3 fold increase
fold increase of TREK2 current (TREK2; [3]): 2.3±0.3 fold increase

FC(F)OC(Cl)C(F)(F)F (centres unmarked) [isoflurane]
fold increase of TREK2 current (TREK2; [3]): 1.9±0.1 fold increase

CCCCC/C=C\C/C=C\CCCCCCCC(=O)O [linoleic acid]
activation of TREK2 by fatty acids and lysophospholipids (in words) (TREK2): activated

CCCCCCCCCCCCCCCC(=O)O [palmitic acid]
activation of TREK2 by fatty acids and lysophospholipids (in words) (TREK2): not

Nc1nc2ccc(OC(F)(F)F)cc2s1 [riluzole]
effect on TREK2 current (in words) (TREK2; current monitored at +100 mV): activated
time course of TREK2 activation (in words) (TREK2; followed by a decrease of the activity corresponding to an inhibition): transient
activation of TREK1 (in words) (TREK1): transiently activated
activation of TRAAK (in words) (TRAAK): permanently activated

CC[N+](CC)(CC)CC [tetraethylammonium]
sensitivity of TREK2 currents (TREK2; 10 mM): insensitive

lysophosphatidylcholine
activation of TREK2 by fatty acids and lysophospholipids (in words) (TREK2): activated

lysophosphatidylinositol
fold increase of TREK2 current (TREK2; 10 μM, at 0 mV): 5.1±0.6 fold increase
